According to patent US20100063112A1, “POLYMORPH III OF 4-[4-(AMINO)-3-FLUOROPHENOXY]-N-METHYLPYRIDINE-2-CARBOXAMIDE” (BAYER SCHERING PHARMA AKTIENGESELLSCHAFT, priority 2006, published 2010):

Assay: solubility in water and in organic solvents
Type: physicochemical

CNC(=O)c1cc(Oc2ccc(NC(=O)Nc3ccc(Cl)c(C(F)(F)F)c3)c(F)c2)ccn1 [polymorph III, 4-[4-({[4-chloro-3-(trifluoromethyl)phenyl]carbamoyl}amino)-3-fluorophenoxy]-N-methylpyridine-2-carboxamide in the polymorph III]
solubility in organic solvents (organic solvents): high
solubility in water (water): high
